In PubChem BioAssay AID1963846 (Molecular Pharmacology Branch, DTP, NCI, 2024):

Test system: 454973-116-R2-J3-PDC complex spheroid viability
Experiment: Anticancer human tumor 454973-116-R2-J3-PDC patient-derived pancreatic carcinoma cell line growth inhibition [POLQ]
Settings: for IC50: curve of first compound; for viability, T/C: stronger effect = lower value
Outline: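 PDC + HUVEC + MSC complex spheroids; POLQ inhibitors ± partner drugs; top conc. at/near clinical Cmax, else 10 microM (SN-38 1 microM), half-log dilutions; 37 degrees C, 5% CO2.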

[1] = second compound 0.0316 µM, first compound 0.00316 µM
[2] = second compound 0.0316 µM, first compound 0.01 µM
[3] = second compound 0.0316 µM, first compound 0.0316 µM
[4] = second compound 0.0316 µM, first compound 0.1 µM
[5] = second compound 0.1 µM, first compound 0.00316 µM
[6] = second compound 0.1 µM, first compound 0.01 µM
[7] = second compound 0.1 µM, first compound 0.0316 µM
[8] = second compound 0.1 µM, first compound 0.1 µM
[9] = second compound 0.316 µM, first compound 0.00316 µM
[10] = second compound 0.316 µM, first compound 0.01 µM
[11] = second compound 0.316 µM, first compound 0.0316 µM
[12] = second compound 0.316 µM, first compound 0.1 µM
[13] = second compound 1 µM, first compound 0.00316 µM
[14] = second compound 1 µM, first compound 0.01 µM
[15] = second compound 1 µM, first compound 0.0316 µM
[16] = second compound 1 µM, first compound 0.1 µM
[17] = second compound 3.16 µM, first compound 0.00316 µM
[18] = second compound 3.16 µM, first compound 0.01 µM
[19] = second compound 3.16 µM, first compound 0.0316 µM
[20] = second compound 3.16 µM, first compound 0.1 µM
[21] = second compound 10 µM, first compound 0.00316 µM
[22] = second compound 10 µM, first compound 0.01 µM
[23] = second compound 10 µM, first compound 0.0316 µM
[24] = second compound 10 µM, first compound 0.1 µM
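Note: spheroids exposed to drugs for seven days before measurement.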
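Throughout, for viability, T/C: percent viability relative to DMSO vehicle control wells taken as 100%.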

COc1cccc(OCCCN)c1-c1cc(Nc2cnc(C#N)cn2)n[nH]1 + Cc1cccc(N(C)C(=O)C2C(O)CCN2c2nc(C)cc(C(F)(F)F)c2C#N)c1
IC50 (second compound 0.0316 µM): 17.8 nM
IC50 (second compound 0.1 µM): 16 nM
IC50 (second compound 0.316 µM): 16 nM
IC50 (second compound 1 µM): 13.4 nM
IC50 (second compound 3.16 µM): 13.2 nM
IC50 (second compound 10 µM): 13.6 nM
viability, T/C [1]: 109%
viability, T/C [2]: 78.1%
viability, T/C [3]: 21.9%
viability, T/C [4]: 7.22%
viability, T/C (second compound 0.0316 µM, first compound 0.316 µM): 5.75%
viability, T/C (second compound 0.0316 µM, first compound 1 µM): 4.08%
viability, T/C [5]: 95%
viability, T/C [6]: 75.2%
viability, T/C [7]: 13.4%
viability, T/C [8]: 7.01%
viability, T/C (second compound 0.1 µM, first compound 0.316 µM): 6.2%
viability, T/C (second compound 0.1 µM, first compound 1 µM): 4.45%
viability, T/C [9]: 102%
viability, T/C [10]: 77.6%
viability, T/C [11]: 10%
viability, T/C [12]: 6.6%
viability, T/C (second compound 0.316 µM, first compound 0.316 µM): 5.64%
viability, T/C (second compound 0.316 µM, first compound 1 µM): 5.58%
viability, T/C [13]: 104%
viability, T/C [14]: 64.2%
viability, T/C [15]: 8.06%
viability, T/C [16]: 5.29%
viability, T/C (second compound 1 µM, first compound 0.316 µM): 5.1%
viability, T/C (second compound 1 µM, first compound 1 µM): 4.45%
viability, T/C [17]: 112%
viability, T/C [18]: 63%
viability, T/C [19]: 9.04%
viability, T/C [20]: 6.82%
viability, T/C (second compound 3.16 µM, first compound 0.316 µM): 5.92%
viability, T/C (second compound 3.16 µM, first compound 1 µM): 6.01%
viability, T/C [21]: 98.6%
viability, T/C [22]: 64.2%
viability, T/C [23]: 11.1%
viability, T/C [24]: 5.73%
viability, T/C (second compound 10 µM, first compound 0.316 µM): 6.26%
viability, T/C (second compound 10 µM, first compound 1 µM): 5.41%

Cn1ncnc1[C@H]1c2n[nH]c(=O)c3cc(F)cc(c23)N[C@@H]1c1ccc(F)cc1 + Cc1cccc(N(C)C(=O)C2C(O)CCN2c2nc(C)cc(C(F)(F)F)c2C#N)c1
IC50 (second compound 0.0316 µM): > 100 nM
IC50 (second compound 0.1 µM): > 100 nM
IC50 (second compound 0.316 µM): > 100 nM
IC50 (second compound 1 µM): > 100 nM
IC50 (second compound 3.16 µM): > 100 nM
IC50 (second compound 10 µM): > 100 nM
viability, T/C (second compound 0.0316 µM, first compound 0.000316 µM): 109%
viability, T/C (second compound 0.0316 µM, first compound 0.001 µM): 97%
viability, T/C [1]: 91.8%
viability, T/C [2]: 96.1%
viability, T/C [3]: 108%
viability, T/C [4]: 89.6%
viability, T/C (second compound 0.1 µM, first compound 0.000316 µM): 106%
viability, T/C (second compound 0.1 µM, first compound 0.001 µM): 100%
viability, T/C [5]: 95.6%
viability, T/C [6]: 97.2%
viability, T/C [7]: 94.3%
viability, T/C [8]: 90.1%
viability, T/C (second compound 0.316 µM, first compound 0.000316 µM): 102%
viability, T/C (second compound 0.316 µM, first compound 0.001 µM): 104%
viability, T/C [9]: 98.5%
viability, T/C [10]: 97.6%
viability, T/C [11]: 98.5%
viability, T/C [12]: 85.2%
viability, T/C (second compound 1 µM, first compound 0.000316 µM): 110%
viability, T/C (second compound 1 µM, first compound 0.001 µM): 102%
viability, T/C [13]: 103%
viability, T/C [14]: 105%
viability, T/C [15]: 91.7%
viability, T/C [16]: 91.4%
viability, T/C (second compound 3.16 µM, first compound 0.000316 µM): 105%
viability, T/C (second compound 3.16 µM, first compound 0.001 µM): 119%
viability, T/C [17]: 103%
viability, T/C [18]: 108%
viability, T/C [19]: 97.2%
viability, T/C [20]: 85.6%
viability, T/C (second compound 10 µM, first compound 0.000316 µM): 107%
viability, T/C (second compound 10 µM, first compound 0.001 µM): 96%
viability, T/C [21]: 97.5%
viability, T/C [22]: 91.8%
viability, T/C [23]: 101%
viability, T/C [24]: 85%
